Earlier results in US20220071932A1, “Compositions and Methods Against Stress-Induced Affective Disorders and Their Associated Symptoms” (The Trustees of Columbia University in the City of New York, priority 2019, published 2022).

Tested on: depressive symptoms in patients
Conditions: patients diagnosed with MDD; cited from earlier work

For `CC12CC3CC(C)(C1)CC(N)(C3)C2` [memantine], the “reduction of depressive symptoms” value is listed as “does not reduce depressive symptoms”.
